Measured values reported in patent US6436945B2, “Substituted O6-benzyl-8-aza-guanines” (The United States of America as represented by the of …, priority 1994, dated 2002).

Key:
HT-29 colon cancer cells = experiment: Killing of HT-29 colon cancer cells by BCNU combined with AGT inactivators (colony formation); conditions: for Colony Formation per 1000 cells: HT-29
Protocol: (§1) Cells were treated for 2 h with AGT inactivator prior to exposure to BCNU.

[1] = test system: MCF-71 breast cancer cells; experiment: Killing of MCF-71 breast cancer cells by BCNU combined with AGT inactivators (colony formation)
Protocol: as §1

[2] = test system: DU-145 prostate cancer cells; experiment: Killing of DU-145 prostate cancer cells by BCNU combined with AGT inactivators (colony formation)
Protocol: as §1

[3] = molecular target: T1, O^6-alkylguanine-DNA alkyltransferase (AGT) (Homo sapiens, UniProt P16455); experiment: AGT inactivation in intact HT29 cells; conditions: for ratio of ED50 values in cell-free extracts/intact cells: HT29; for AGT inactivating activity in intact HT29 cells, in words: comparison
T1 sequence (P16455 1-207): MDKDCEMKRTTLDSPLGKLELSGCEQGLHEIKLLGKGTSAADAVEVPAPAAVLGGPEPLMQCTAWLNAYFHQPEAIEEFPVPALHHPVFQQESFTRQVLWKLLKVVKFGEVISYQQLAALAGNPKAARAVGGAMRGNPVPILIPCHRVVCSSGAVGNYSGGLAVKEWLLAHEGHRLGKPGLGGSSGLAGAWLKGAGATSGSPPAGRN
Protocol: (§2) The data represent the dose of compound required to produce 50% inactivation in cell-free extracts upon incubation for 30 min or in cells upon incubation for 4 hr.

[4] = molecular target: T1, O^6-alkylguanine-DNA alkyltransferase (AGT); experiment: AGT inactivation in HT29 cell-free extract; conditions: for AGT inactivating activity in HT29 cell-free extracts, in words: comparison
Protocol: as §2

[5] = BCNU 40 μM, statement covers HT29, DU-145 and MCF-71 cells (Tables 3-5)

## O=NN(CCCl)C(=O)NCCCl [BCNU, 1,3-bis(2-chloroethyl)-1-nitrosourea, reference compound]
HT-29 colon cancer cells; no inactivator, BCNU 40 μM
  Colony Formation per 1000 cells: 442 ± 34 per 1000 cells
HT-29 colon cancer cells; statement covers HT29, DU-145 and MCF-71 cells (Tables 3-5)
  effect of agent alone on cell colony number, in words: no significant effect on cell colony number
[1]; no inactivator, BCNU 40 μM
  Colony Formation per 1000 cells: 364 ± 60 per 1000 cells
[2]; no inactivator, BCNU 40 μM
  Colony Formation per 1000 cells: 394 ± 76 per 1000 cells

## Nc1nc(OCc2ccccc2)c2nc(N)[nH]c2n1 [Compound 1a, 8-Amino-O^6-benzylguanine]
[3]
  EC50: 2000 nM
[4]
  EC50: 700 nM
HT-29 colon cancer cells; [5]
  enhancement of BCNU cytotoxicity, in words: comparatively low activity
HT-29 colon cancer cells; inactivator 1 μM, BCNU 40 μM
  Colony Formation per 1000 cells: 475 ± 26 per 1000 cells
HT-29 colon cancer cells; inactivator 10 μM, BCNU 40 μM
  Colony Formation per 1000 cells: 430 ± 41 per 1000 cells
HT-29 colon cancer cells; inactivator 10 μM, BCNU none
  Colony Formation per 1000 cells: 504 ± 30 per 1000 cells
[1]; inactivator 10 μM, BCNU 40 μM
  Colony Formation per 1000 cells: 95 ± 8 per 1000 cells
[1]; inactivator 10 μM, BCNU none
  Colony Formation per 1000 cells: 432 ± 36 per 1000 cells
[2]; inactivator 1 μM, BCNU 40 μM
  Colony Formation per 1000 cells: 295 ± 45 per 1000 cells
[2]; inactivator 10 μM, BCNU 40 μM
  Colony Formation per 1000 cells: 435 ± 70 per 1000 cells
[2]; inactivator 10 μM, BCNU none
  Colony Formation per 1000 cells: 380 ± 36 per 1000 cells

## Cc1nc2c(OCc3ccccc3)nc(N)nc2[nH]1 [Compound 1b, O^6-benzyl-8-methylguanine]
[3]
  EC50: 100 nM
[4]
  EC50: 300 nM
HT-29 colon cancer cells; inactivator 1 μM, BCNU 40 μM
  Colony Formation per 1000 cells: 230 ± 51 per 1000 cells
HT-29 colon cancer cells; inactivator 10 μM, BCNU 40 μM
  Colony Formation per 1000 cells: <1 per 1000 cells
HT-29 colon cancer cells; inactivator 10 μM, BCNU none
  Colony Formation per 1000 cells: 513 ± 76 per 1000 cells
[1]; inactivator 10 μM, BCNU 40 μM
  Colony Formation per 1000 cells: 2 ± 1 per 1000 cells
[1]; inactivator 10 μM, BCNU none
  Colony Formation per 1000 cells: 376 ± 76 per 1000 cells
[2]; inactivator 1 μM, BCNU 40 μM
  Colony Formation per 1000 cells: 306 ± 157 per 1000 cells
[2]; inactivator 10 μM, BCNU 40 μM
  Colony Formation per 1000 cells: 50 ± 7 per 1000 cells
[2]; inactivator 10 μM, BCNU none
  Colony Formation per 1000 cells: 357 ± 43 per 1000 cells

## Nc1nc(OCc2ccccc2)c2[nH]c(=O)[nH]c2n1 [Compound 1c, O^6-Benzyl-8-oxoguanine]
[3]
  EC50: 150 nM
[4]
  EC50: 300 nM
HT-29 colon cancer cells; inactivator 1 μM, BCNU 40 μM
  Colony Formation per 1000 cells: 221 ± 15 per 1000 cells
HT-29 colon cancer cells; inactivator 10 μM, BCNU 40 μM
  Colony Formation per 1000 cells: <1 per 1000 cells
HT-29 colon cancer cells; inactivator 10 μM, BCNU none
  Colony Formation per 1000 cells: 401 ± 22 per 1000 cells
[1]; inactivator 10 μM, BCNU 40 μM
  Colony Formation per 1000 cells: 4 ± 2 per 1000 cells
[1]; inactivator 10 μM, BCNU none
  Colony Formation per 1000 cells: 522 ± 78 per 1000 cells
[2]; inactivator 1 μM, BCNU 40 μM
  Colony Formation per 1000 cells: 329 ± 43 per 1000 cells
[2]; inactivator 10 μM, BCNU 40 μM
  Colony Formation per 1000 cells: 34 ± 3 per 1000 cells
[2]; inactivator 10 μM, BCNU none
  Colony Formation per 1000 cells: 379 ± 34 per 1000 cells

## Nc1nc(OCc2ccccc2)c2nc(Br)[nH]c2n1 [Compound 1d, O^6-Benzyl-8-bromoguanine]
[3]
  EC50: 60 nM
  ratio of ED50 values in cell-free extracts/intact cells: 1.6
  AGT inactivating activity in intact HT29 cells, in words: somewhat less active in cells than expected
[4]
  EC50: 80 nM
  AGT inactivating activity in HT29 cell-free extracts, in words: essentially as active as pyrimidines 3d and 3e
HT-29 colon cancer cells; inactivator 1 μM, BCNU 40 μM
  Colony Formation per 1000 cells: 299 ± 30 per 1000 cells
HT-29 colon cancer cells; inactivator 10 μM, BCNU 40 μM
  Colony Formation per 1000 cells: 1 ± 0 per 1000 cells
HT-29 colon cancer cells; inactivator 10 μM, BCNU none
  Colony Formation per 1000 cells: 401 ± 22 per 1000 cells
[1]; inactivator 10 μM, BCNU 40 μM
  Colony Formation per 1000 cells: 3 ± 1 per 1000 cells
[1]; inactivator 10 μM, BCNU none
  Colony Formation per 1000 cells: 380 ± 109 per 1000 cells
[1]; inactivator […], BCNU 40 μM
  Colony Formation per 1000 cells: 4 ± 3 per 1000 cells
[2]; inactivator 1 μM, BCNU 40 μM
  Colony Formation per 1000 cells: 267 ± 39 per 1000 cells
[2]; inactivator 10 μM, BCNU 40 μM
  Colony Formation per 1000 cells: 16 ± 3 per 1000 cells
[2]; inactivator 10 μM, BCNU none
  Colony Formation per 1000 cells: 493 ± 90 per 1000 cells

## Nc1nc(OCc2ccccc2)c2nn[nH]c2n1 [Compound 2, 8-Aza-O^6-benzylguanine]
[3]
  EC50: 60 nM
[4]
  EC50: 70 nM
HT-29 colon cancer cells; inactivator 1 μM, BCNU 40 μM
  Colony Formation per 1000 cells: 423 ± 42 per 1000 cells
HT-29 colon cancer cells; inactivator 10 μM, BCNU 40 μM
  Colony Formation per 1000 cells: 2 ± 1 per 1000 cells
HT-29 colon cancer cells; inactivator 10 μM, BCNU none
  Colony Formation per 1000 cells: 537 ± 48 per 1000 cells
[1]; inactivator 10 μM, BCNU 40 μM
  Colony Formation per 1000 cells: 2 ± 1 per 1000 cells
[1]; inactivator 10 μM, BCNU none
  Colony Formation per 1000 cells: 483 ± 27 per 1000 cells
[2]; inactivator 1 μM, BCNU 40 μM
  Colony Formation per 1000 cells: 248 ± 21 per 1000 cells
[2]; inactivator 10 μM, BCNU 40 μM
  Colony Formation per 1000 cells: 28 ± 5 per 1000 cells
[2]; inactivator 10 μM, BCNU none
  Colony Formation per 1000 cells: 452 ± 72 per 1000 cells

## Nc1ncnc(OCc2ccccc2)c1[N+](=O)[O-] [Compound 3a, 4-Amino-6-benzyloxy-5-nitropyrimidine]
[3]
  EC50: 8000 nM
[4]
  EC50: 28000 nM

## Nc1cc(OCc2ccccc2)nc(N)n1 [Compound 3b, 2,4-diamino-6-benzyloxypyrimidine]
[3]
  EC50: 5000 nM
[4]
  EC50: 15000 nM

## Nc1nc(N)c([N+](=O)[O-])c(OCc2ccccc2)n1 [Compound 3e, 2,4-diamino-6-benzyloxy-5-nitropyrimidine]
HT-29 colon cancer cells; [5]
  enhancement of BCNU cytotoxicity, in words: similarly effective at a 4-fold lower dose
HT-29 colon cancer cells; inactivator 1 μM, BCNU 40 μM
  Colony Formation per 1000 cells: 45 ± 4 per 1000 cells
HT-29 colon cancer cells; inactivator […], BCNU 40 μM
  Colony Formation per 1000 cells: <1 per 1000 cells
[1]; inactivator […], BCNU 40 μM
  Colony Formation per 1000 cells: 2 ± 1 per 1000 cells
[2]; inactivator 1 μM, BCNU 40 μM
  Colony Formation per 1000 cells: 59 ± 6 per 1000 cells

## Nc1nc(N)c(Br)c(OCc2ccccc2)n1 [Compound 3f, 2,4-Diamino-6-benzyloxy-5-bromopyrimidine]
[3]
  EC50: 800 nM
[4]
  EC50: 2000 nM
  AGT inactivating activity in HT29 cell-free extracts, in words: considerably more active than 3b

## O=c1nc(OCc2ccccc2)c2[nH]cnc2[nH]1 [Compound 4a, O^6-Benzylxanthine]
[3]
  EC50: 35000 nM
[4]
  EC50: 60000 nM

## O=c1nc(OCc2ccccc2)c2[nH]c(=O)[nH]c2[nH]1 [Compound 4b, O^6-Benzyluric acid]
[3]
  EC50: 45000 nM
[4]
  EC50: 25000 nM

## Fc1nc(OCc2ccccc2)c2nc[nH]c2n1 [Compound 4c, O^6-benzyl-2-fluorohypoxanthine]
[3]
  EC50: 12000 nM
[4]
  EC50: 48000 nM

## CC(=O)Nc1nc(OCc2ccccc2)c2[nH]c(=O)[nH]c2n1 [Compound 4d, N^2-Acetyl-O^6-benzyl-8-oxoguanine]
[3]
  EC50: 11000 nM
[4]
  EC50: 65000 nM

## CNc1nc(OCc2ccccc2)c2nc[nH]c2n1 [Compound 4e, O^6-Benzyl-N^2-methylguanine]
[3]
  EC50: 60000 nM
[4]
  EC50: 160000 nM

## CN(C)c1nc(OCc2ccccc2)c2nc[nH]c2n1 [Compound 4f, O^6-Benzyl-N^2,N^2-dimethylguanine]
[3]
  EC50: 110000 nM
[4]
  EC50: 200000 nM

## Nc1ncc([N+](=O)[O-])c(OCc2ccccc2)n1 [Compound 5a, 2-Amino-4-benzyloxy-5-nitropyrimidine]
[3]
  EC50: 50 nM
  AGT inactivating activity in intact HT29 cells, in words: quite active in cells
[4]
  EC50: 400 nM
  AGT inactivating activity in HT29 cell-free extracts, in words: much more active than 3a

## Cc1nc(N)nc(OCc2ccccc2)c1[N+](=O)[O-] [Compound 5b, 2-Amino-4-benzyloxy-6-methyl-5-nitropyrimidine]
[3]
  EC50: 60 nM
  AGT inactivating activity in intact HT29 cells, in words: quite active in cells
[4]
  EC50: 400 nM

## Nc1nc(N)nc(OCc2ccccc2)n1 [Compound 6, 2,4-Diamino-6-benzyloxy-s-triazine]
[3]
  EC50: 1000 nM
[4]
  EC50: 4000 nM
  AGT inactivating activity in HT29 cell-free extracts, in words: considerably more active than 3b

## Cn1nnc2c(OCc3ccccc3)nc(N)nc21 [Compound 8a, 8-Aza-O^6-benzyl-9-methylguanine]
[3]
  EC50: 80 nM
  ratio of ED50 values in cell-free extracts/intact cells: 6.3
  AGT inactivating activity in intact HT29 cells, in words: significantly higher than their activity in cell-free extracts
[4]
  EC50: 500 nM

## Cn1c(Br)nc2c(OCc3ccccc3)nc(N)nc21 [Compound 10a, O^6-Benzyl-8-bromo-9-methylguanine]
[3]
  EC50: 250 nM
  ratio of ED50 values in cell-free extracts/intact cells: 7.2
  AGT inactivating activity in intact HT29 cells, in words: significantly higher than their activity in cell-free extracts
[4]
  EC50: 1900 nM
